Results as given in article PMC9331314, “Synthesis and Antiviral Properties of Camphor-Derived Iminothiazolidine-4-Ones and 2,3-Dihydrothiazoles” (Molecules, 2022).

How the values were obtained:
[1] = test system: vaccinia virus (strain Copenhagen)
[2] = test system: Marburg pseudovirus (GP MARV)
in vitro [3] = conditions: African green monkey
in vitro [4] = conditions: human
[5] = test system: vaccinia virus (strain Copenhagen); test: microbe, parasite or virus in culture; conditions: Orthopoxvirus vaccinia, Vero, 96 h
[6] = test system: Marburg pseudovirus (GP MARV); test: microbe, parasite or virus in culture; conditions: 24 h

Row | Compound | SI (CC50/IC50) [1] | SI (CC50/IC50) [2] | CC50 (in vitro [3]) [µM] | CC50 (in vitro [4]) [µM] | IC50 [5] [µM] | IC50 [6] [µM]
1 | C=CCNC(=S)N/N=C1\C[C@@H]2CC[C@@]1(C)C2(C)C [2′b, (E)-N-allyl-2-((1S,4S)-1,7,7-trimethylbicyclo[2.2.1]heptan-2-ylidene)hydrazinecarbothioamide] | 3 | 15 | 35 ± 4.6 | 56.5 ± 8.2 | 12 ± 2.9 | 3.8 ± 1.9
2 | CCNC(=S)N/N=C1\C[C@@H]2CC[C@@]1(C)C2(C)C [2′c, (E)-N-ethyl-2-((1S,4S)-1,7,7-trimethylbicyclo[2.2.1]heptan-2-ylidene)hydrazinecarbothioamide] | 3 | 16 | 45 ± 6.6 | 530 ± 35.4 | 14 ± 2.6 | 9.1 ± 3.9
3 | CC1(C)[C@H]2CC[C@]1(C)/C(=N\N=C1\SCC(=O)N1c1ccccc1)C2 [3′a, (Z)-3-phenyl-2-((E)-((1S,4S)-1,7,7-trimethylbicyclo[2.2.1]heptan-2-ylidene)hydrazono)thiazolidin-4-one] | 4 | – | 290 ± 36.9 | – | 75 ± 13.7 | –
4 | C=CCN1C(=O)CS/C1=N/N=C1/C[C@@H]2CC[C@@]1(C)C2(C)C [3′b, (Z)-3-allyl-2-((E)-((1S,4S)-1,7,7-trimethylbicyclo[2.2.1]heptan-2-ylidene)hydrazono)thiazolidin-4-one] | 2 | 3 | 160 ± 20.8 | 121 ± 6.5 | 66 ± 12.9 | 45.8 ± 6.5
5 | CCN1C(=O)CS/C1=N/N=C1/C[C@@H]2CC[C@@]1(C)C2(C)C [3′c, (Z)-3-ethyl-2-((E)-((1S,4S)-1,7,7-trimethylbicyclo[2.2.1]heptan-2-ylidene)hydrazono)thiazolidin-4-one] | 4 | 3 | 220 ± 28.6 | 170 ± 40.9 | 64 ± 12.3 | 68.2 ± 20.4
6 | CN1C(=O)CS/C1=N/N=C1/C[C@@H]2CC[C@@]1(C)C2(C)C [3′d, (Z)-3-methyl-2-((E)-((1S,4S)-1,7,7-trimethylbicyclo[2.2.1]heptan-2-ylidene)hydrazono)thiazolidin-4-one] | – | 6 | 250 ± 31.4 | 182 ± 14.3 | – | 28.6 ± 10.7
7 | Nc1ccn(C[C@@H](CO)OCP(=O)(O)O)c(=O)n1 [Cidofovir, reference compound] | 12 | – | 475 ± 74.9 | – | 40.1 ± 2.8 | –
8 | C=CCN1C(=O)CS/C1=N/N=C1/C[C@H]2CC[C@]1(C)C2(C)C [Compound 3b, (Z)-3-allyl-2-((E)-((1R,4R)-1,7,7-trimethylbicyclo[2.2.1]heptan-2-ylidene)hydrazono)thiazolidin-4-one] | – | 5 | 99 ± 11.8 | 108 ± 6.5 | 72 ± 12.2 | 22.9 ± 0.7
9 | CCN1C(=O)CS/C1=N/N=C1/C[C@H]2CC[C@]1(C)C2(C)C [Compound 3c, (Z)-3-ethyl-2-((E)-((1R,4R)-1,7,7-trimethylbicyclo[2.2.1]heptan-2-ylidene)hydrazono)thiazolidin-4-one] | 4 | 2 | 87 ± 10.1 | 54.1 ± 9.2 | 24 ± 3.9 | 30.7 ± 6.8
10 | CN1C(=O)CS/C1=N/N=C1/C[C@H]2CC[C@]1(C)C2(C)C [Compound 3d, (Z)-3-methyl-2-((E)-((1R,4R)-1,7,7-trimethylbicyclo[2.2.1]heptan-2-ylidene)hydrazono)thiazolidin-4-one] | 3 | – | 310 ± 41.3 | – | 100 ± 17.6 | –
11 | CC1(C)S/C(=N/N=C2/C[C@H]3CC[C@]2(C)C3(C)C)N(c2ccccc2)C1=O [Compound 4a, (Z)-5,5-dimethyl-3-phenyl-2-((E)-((1R,4R)-1,7,7-trimethylbicyclo[2.2.1]heptan-2-ylidene)hydrazono)thiazolidin-4-one] | 8 | 3 | 270 ± 35.2 | 325 ± 36.1 | 32.5 ± 2.8 | 94.7 ± 8.1
12 | CCN1C(=O)C(C)(C)SC1=NN=C1CC2CCC1(C)C2(C)C [Compound 4c, ((Z)-3-ethyl-5,5-dimethyl-2-((E)-((1R,4R)-1,7,7-trimethylbicyclo[2.2.1]heptan-2-ylidene)hydrazono)thiazolidin-4-one] | – | 5 | 290 ± 34.9 | 778 ± 82.8 | – | 171 ± 46.7
13 | C=CCn1c(-c2ccc(Cl)cc2)cs/c1=N/N=C1\C[C@H]2CC[C@]1(C)C2(C)C [Compound 5b, (E)-3-allyl-4-(4-chlorophenyl)-2-((E)-((1R,4R)-1,7,7-trimethylbicyclo[2.2.1]heptan-2-ylidene)hydrazono)-2,3-dihydrothiazole] | 8 | 3 | 19 ± 2.8 | 80 ± 20 | 2.5 ± 0.3 | 30 ± 10
